From US10906915B2, “Substituted pyrazoloazepin-4-ones and their use as phosphodiesterase inhibitors” (LEO Pharma A/S, priority 2016, dated 2021)

Target: human PDE4D catalytic domain (UniProt no. Q08499) (Homo sapiens (Human), UniProt Q08499)
Assay: PDE4 assay (TR-FRET, FAM-cAMP cleavage)
Assay type: biochemical
Details: human PDE4D catalytic domain; molar concentration giving 50% inhibition of substrate cleavage; read-out: PDE4 IC50 range
Procedure, shortened: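 Read-out is time-resolved FRET from Tb donor to FAM-AMP captured on trivalent-metal nanoparticles added to stop the reaction. Substrate was a mix of plain and FAM-labelled cAMP, cleaved by human PDE4D catalytic domain ([…]) with titrated compound; IC50 ranges (nM) versus controls.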

Chain of human PDE4D catalytic domain (Q08499 380-740 limits assumed): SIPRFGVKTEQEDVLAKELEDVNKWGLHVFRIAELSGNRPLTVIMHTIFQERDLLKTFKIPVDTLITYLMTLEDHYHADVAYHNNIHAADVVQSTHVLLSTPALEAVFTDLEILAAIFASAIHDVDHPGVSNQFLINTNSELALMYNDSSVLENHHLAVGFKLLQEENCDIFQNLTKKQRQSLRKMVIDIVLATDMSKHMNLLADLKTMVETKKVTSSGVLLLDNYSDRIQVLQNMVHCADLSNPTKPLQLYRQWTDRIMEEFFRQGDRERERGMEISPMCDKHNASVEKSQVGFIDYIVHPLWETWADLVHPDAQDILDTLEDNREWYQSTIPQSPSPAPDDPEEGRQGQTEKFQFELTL

Compound	IC50 [nM]
CCc1nn(CCCOC(=O)c2ccc(C(=O)N3CCCC3)cc2)c2c1C(=O)NCC1(CCOCC1)C2 [Example 145, 3-(3-ethyl-4-oxo-spiro[6,8-dihydro-5H-pyrazolo[4,3-c]azepine-7,4′-tetrahydropyran]-1-yl)propyl 4-(pyrrolidine-1-carbonyl)benzoate]	100 to 500
CCc1nn(CCCOC(=O)c2ccc(C(=O)N3CCCCC3)cc2)c2c1C(=O)NCC1(CCOCC1)C2 [Example 146, 3-(3-ethyl-4-oxo-spiro[6,8-dihydro-5H-pyrazolo[4,3-c]azepine-7,4′-tetrahydropyran]-1-yl)propyl 4-(piperidine-1-carbonyl)benzoate]	< 100
CCc1nn(CCCOC(=O)c2ccc(C(=O)N3CCOCC3)cc2)c2c1C(=O)NCC1(CCOCC1)C2 [Example 147, 3-(3-ethyl-4-oxo-spiro[6,8-dihydro-5H-pyrazolo[4,3-c]azepine-7,4′-tetrahydropyran]-1-yl)propyl 4-(morpholine-4-carbonyl)benzoate]	100 to 500
CCc1nn(CCCOC(=O)c2ccc(C(=O)N3CCN(C)CC3)cc2)c2c1C(=O)NCC1(CCOCC1)C2 [Example 148, 3-(3-ethyl-4-oxo-spiro[6,8-dihydro-5H-pyrazolo[4,3-c]azepine-7,4′-tetrahydropyran]-1-yl)propyl 4-(4-methylpiperazine-1-carbonyl)benzoate]	100 to 500
CCc1nn(CCCOC(=O)c2ccc(C(=O)N3CCN(C(C)=O)CC3)cc2)c2c1C(=O)NCC1(CCOCC1)C2 [Example 149, 3-(3-ethyl-4-oxo-spiro[6,8-dihydro-5H-pyrazolo[4,3-c]azepine-7,4′-tetrahydropyran]-1-yl)propyl 4-(4-acetylpiperazine-1-carbonyl)benzoate]	100 to 500
CCc1nn(CCCOC(=O)c2cccc(C(N)=O)c2)c2c1C(=O)NCC1(CCOCC1)C2 [Example 150, 3-(3-ethyl-4-oxo-spiro[6,8-dihydro-5H-pyrazolo[4,3-c]azepine-7,4′-tetrahydropyran]-1-yl)propyl 3-carbamoylbenzoate]	< 100
CCc1nn(CCCOC(=O)c2cccc(C(=O)NC)c2)c2c1C(=O)NCC1(CCOCC1)C2 [Example 151, 3-(3-ethyl-4-oxo-spiro[6,8-dihydro-5H-pyrazolo[4,3-c]azepine-7,4′-tetra-hydropyran]-1-yl)propyl 3-(methylcarbamoyl)benzoate]	< 100
CCNC(=O)c1cccc(C(=O)OCCCn2nc(CC)c3c2CC2(CCOCC2)CNC3=O)c1 [Example 152, 3-(3-ethyl-4-oxo-spiro[6,8-dihydro-5H-pyrazolo[4,3-c]azepine-7,4′-tetrahydropyran]-1-yl)propyl 3-(ethylcarbamoyl)benzoate]	< 100
CCc1nn(CCCOC(=O)c2cccc(C(=O)N(C)C)c2)c2c1C(=O)NCC1(CCOCC1)C2 [Example 153, 3-(3-ethyl-4-oxo-spiro[6,8-dihydro-5H-pyrazolo[4,3-c]azepine-7,4′-tetrahydropyran]-1-yl)propyl 3-(dimethylcarbamoyl)-benzoate]	< 100
CCc1nn(CCCOC(=O)c2cccc(C(=O)NC(C)C)c2)c2c1C(=O)NCC1(CCOCC1)C2 [Example 154, 3-(3-ethyl-4-oxo-spiro[6,8-dihydro-5H-pyrazolo[4,3-c]azepine-7,4′-tetrahydropyran]-1-yl)propyl 3-(isopropylcarbamoyl)-benzoate]	< 100
CCc1nn(CCCOC(=O)c2cccc(C(=O)N3CCCC3)c2)c2c1C(=O)NCC1(CCOCC1)C2 [Example 155, 3-(3-ethyl-4-oxo-spiro[6,8-dihydro-5H-pyrazolo[4,3-c]azepine-7,4′-tetrahydropyran]-1-yl)propyl 3-(pyrrolidine-1-carbonyl)benzoate]	< 100
CCc1nn(CCCOC(=O)c2cccc(C(=O)N3CCCCC3)c2)c2c1C(=O)NCC1(CCOCC1)C2 [Example 156, 3-(3-ethyl-4-oxo-spiro[6,8-dihydro-5H-pyrazolo[4,3-c]azepine-7,4′-tetrahydropyran]-1-yl)propyl 3-(piperidine-1-carbonyl)benzoate]	< 100
CCc1nn(CCCOC(=O)c2cccc(C(=O)N3CCOCC3)c2)c2c1C(=O)NCC1(CCOCC1)C2 [Example 157, 3-(3-ethyl-4-oxo-spiro[6,8-dihydro-5H-pyrazolo[4,3-c]azepine-7,4′-tetrahydropyran]-1-yl)propyl 3-(morpholine-4-carbonyl)benzoate]	< 100
CCc1nn(CCCOC(=O)c2cccc(C(=O)N3CCN(C)CC3)c2)c2c1C(=O)NCC1(CCOCC1)C2 [Example 158, 3-(3-ethyl-4-oxo-spiro[6,8-dihydro-5H-pyrazolo[4,3-c]azepine-7,4′-tetrahydropyran]-1-yl)propyl 3-(4-methylpiperazine-1-carbonyl)benzoate]	100 to 500
CCc1nn(CCCOC(=O)c2cccc(C(=O)N3CCN(C(C)=O)CC3)c2)c2c1C(=O)NCC1(CCOCC1)C2 [Example 159, 3-(3-ethyl-4-oxo-spiro[6,8-dihydro-5H-pyrazolo[4,3-c]azepine-7,4′-tetrahydropyran]-1-yl)propyl 3-(4-acetylpiperazine-1-carbonyl)benzoate]	< 100
CCc1nn(C[C@@H](C)COC(=O)C(C)C)c2c1C(=O)NCC1(CCOCC1)C2 [Example 160, [(2R)-3-(3-ethyl-4-oxo-spiro[6,8-dihydro-5H-pyrazolo[4,3-c]azepine-7,4′-tetrahydropyran]-1-yl)-2-methyl-propyl] 2-methylpropanoate]	< 100
CCc1nn(C[C@@H](C)COC(=O)C2CCCC2)c2c1C(=O)NCC1(CCOCC1)C2 [Example 161, [(2R)-3-(3-ethyl-4-oxo-spiro[6,8-dihydro-5H-pyrazolo[4,3-c]azepine-7,4′-tetrahydropyran]-1-yl)-2-methyl-propyl] cyclopentanecarboxylate]	< 100
CCc1nn(C[C@@H](C)COC(=O)C(CC)CC)c2c1C(=O)NCC1(CCOCC1)C2 [Example 162, [(2R)-3-(3-ethyl-4-oxo-spiro[6,8-dihydro-5H-pyrazolo[4,3-c]azepine-7,4′-tetrahydropyran]-1-yl)-2-methyl-propyl] 2-ethylbutanoate]	< 100
CCc1nn(C[C@@H](C)COC(=O)c2ccccc2)c2c1C(=O)NCC1(CCOCC1)C2 [Example 163, [(2R)-3-(3-ethyl-4-oxo-spiro[6,8-dihydro-5H-pyrazolo[4,3-c]azepine-7,4′-tetrahydropyran]-1-yl)-2-methyl-propyl] benzoate]	< 100
CCc1nn(C[C@@H](C)COC(=O)c2ccc(C)cc2)c2c1C(=O)NCC1(CCOCC1)C2 [Example 164, [(2R)-3-(3-ethyl-4-oxo-spiro[6,8-dihydro-5H-pyrazolo[4,3-c]azepine-7,4′-tetrahydropyran]-1-yl)-2-methyl-propyl] 4-methylbenzoate]	< 100
CCc1nn(C[C@@H](C)COC(=O)c2cccc(F)c2)c2c1C(=O)NCC1(CCOCC1)C2 [Example 165, [(2R)-3-(3-ethyl-4-oxo-spiro[6,8-dihydro-5H-pyrazolo[4,3-c]azepine-7,4′-tetrahydropyran]-1-yl)-2-methyl-propyl] 3-fluorobenzoate]	< 100
CCc1nn(C[C@@H](C)COC(=O)c2ccc(F)cc2)c2c1C(=O)NCC1(CCOCC1)C2 [Example 166, [(2R)-3-(3-ethyl-4-oxo-spiro[6,8-dihydro-5H-pyrazolo[4,3-c]azepine-7,4′-tetrahydropyran]-1-yl)-2-methyl-propyl] 4-fluorobenzoate]	< 100
